Assay [1] deals with pAKT(5473) (phosphorylated at serine 473), PC3 cells. As to the kind of experiment: In-cell Western assay, pAKT(5473) in PC3 cells. The format is cell-based. The conditions noted are these: Homo sapiens, PC-3, In-cell Western, read-out: pAkt-S473. The method, boiled down:
(§1)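 Overnight-seeded PC3 cells were treated 2 h with serially diluted compound, then fixed and immunostained with phospho-specific primary antibodies and Eu-labelled secondary. Time-resolved Eu signal read at 615 nm (ex 340 nm), normalised by Hoechst 33258 staining (ex 355/em 460 nm); IC50 from sigmoidal dose-response fit.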

Assay [2] concerns pAKT(T308) (phosphorylated at threonine 308), PC3 cells. The experiment in a line: In-cell Western assay, pAKT(T308) in PC3 cells. The format is cell-based. The conditions noted are these: Homo sapiens, PC-3, In-cell Western. The method, boiled down: as §1
Assay [3] relates to pAKT(T308) in PC3 tumor. As to the kind of experiment: In vivo PK/PD study, PC3 tumor bearing mice, pAkt(T308) Western blot. The conditions noted are these: 50 mg/kg po, at 8 hours. Here is the method: PC3 cells were cultured at 37° C. in a 5% CO2 incubator using Hams F12 K medium. Ten million (10^7) cells were injected subcutaneously to the right flank region of athymic male mice (Harlan, age: 6-7 weeks, weight: about 20 g). Tumor bearing mice were randomized when the tumor volume reached about 250 mm^3 and three mice were used per each time point. Test compounds of formula (I) were formulated in 40% HPCD in 1×PBS, pH 7.4 and dosed orally at 50 mg/kg single dose (dose volume−10 mL/kg). Plasma and tumor samples were collected at 0 (vehicle control animals), 1, 4 and 24 hours post dosing. Blood was drawn (retro orbital) to a tube containing 0.2% EDTA for plasma collection. The tumor was excised from the mouse and immediately frozen in liquid nitrogen for PD analysis. Tumor and plasma drug concentrations were measured for PK analysis using LC-MS.
Snap frozen tumor samples were pulverized in a mortar (Belart) containing liquid nitrogen and tumor powder was stored at −80° C. until analysis. Pre coated ELISA kits (Cell Signaling Technology; pAKT(T308), CST#7135; pAKT(5473), CST#7134 and pS6RP, CST#7205) were used for PD analysis. Tumor powder was transferred to Eppendorf® tubes and lysis buffer (1 mL) was added to the powder. […] The detection for pAKT was based on chemiluminescence and pS6RP was based on absorbance. […]

Molecules are shown by their SMILES.

On to `CN(C)C(=O)c1ccc(NC(=O)Nc2ccc(-c3nc(N4CCOCC4)c4ccc(-c5cncnc5)cc4n3)cc2)cc1` [Example 1, N,N-Dimethyl-4-(3-{4-[4-morpholin-4-yl-7-pyrimidin-5-yl-quinazolin-2-yl)-phenyl]-ureido}-benzamide], for which the IC50 in assay [1] is 0.1 to 0.5 µM; in assay [2] it was 0.501 to 5 µM.
For `Cc1ccc(-c2ccc3c(N4CCOCC4)nc(-c4ccc(NC(=O)Nc5ccc(C(=O)N(C)C)cc5)cc4)nc3c2)o1` [Example 2, N,N-Dimethyl-4-(3-{4-[7-(5-methyl-furan-2-yl)-4-morpholin-4-yl-quinazolin-2-yl]-phenyl}-ureido)-benzamide], in that order: 0.1 to 0.5 µM and 0.1 to 0.5 µM.
With `CN(C)C(=O)c1ccc(NC(=O)Nc2ccc(-c3nc(N4CCOCC4)c4ccc(-c5cncnc5)cc4n3)cc2)c(F)c1` [Example 133, 3-fluoro-N,N-dimethyl-4-(3-(4-(4-morpholino-7-(pyrimidin-5-yl)quinazolin-2-yl)phenyl)ureido)-benzamide], the IC50 is 0.501 to 5 µM in assay [1] and less than 0.1 µM in assay [2]. Besides, the “suppression of pAkt(T308) by Western blot analysis” value in assay [3] is “significant suppression”.
For `CN(C)C(=O)c1ccc(NC(=O)Nc2ccc(-c3nc(N4CCOCC4)c4ccc(-c5cccnc5F)cc4n3)cc2)c(F)c1` [Example 146, 3-fluoro-4-(3-(4-(7-(2-fluoropyridin-3-yl)-4-morpholino-quinazolin-2-yl)phenyl)ureido)-N,N-dimethyl-benzamide], in that order: less than 0.1 µM, less than 0.1 µM and “significant suppression”.
Regarding `CN(C)C(=O)c1ccc(NC(=O)Nc2ccc(-c3nc(N4CCOCC4)c4ccc(-c5cccnc5)cc4n3)cc2)c(F)c1` [Example 152, 3-fluoro-N,N-dimethyl-4-(3-(4-(4-morpholino-7-(pyridin-3-yl)quinazolin-2-yl)phenyl)ureido)-benzamide], the results for the IC50 in assay [1] and in assay [2] were 0.501 to 5 µM and less than 0.1 µM, respectively.

The record behind these values is patent publication US9115092B2, “Substituted quinazoline and pyrido-pyrimidine derivatives” (Asana Biosciences, LLC, priority 2010, dated 2015).
